What is called IC50 is the midpoint of a concentration-inhibition curve.

29 compounds from US10662203B2, “Pyrido[2,3-b]indole compounds for the treatment and prophylaxis of bacterial infection” (Hoffmann-La Roche Inc., priority 2017, dated 2020) can be followed below.

SMILES strings stand for the structures.

Holding throughout (assay): 50% growth inhibitory concentration (IC50) determination assay
What all share (format): cell-based
Common to all, as to details: Iso-Sensitest broth, 0.098 = detection limit

Experiment [1] concerns A. baumannii (ATCC17978). As for the experimental part: (§1) Stock compounds in DMSO were serially two-fold diluted (range from 50 to 0.097 μM final concentration) in 384 wells microtiter plates and inoculated with 49 μL the bacterial suspension in Iso-Sensitest broth medium to have a final cell concentration of ˜5×10^5 CFU/mL in a final volume/well of 50 μL/well. Microtiter plates were incubated at 35±2° C. Bacterial cell growth was determined with the measurement of optical density at λ=600 nm each 20 minutes over a time course of 16 h. […] GP-6 (Example 4.131 disclosed in WO 2012/125746 A1) was used as the reference compound in Table 6-8. […] The data of IC50 over S. aureus (ATCC29213), K. pneumoniae (ATCC10031), and A. baumannii (ATCC17978) are illustrated in Table 6.

Experiment [2] deals with K. pneumoniae (ATCC10031). As for the experimental part: as §1
Experiment [3] relates to S. aureus (ATCC29213). The method, then:
as §1

Where [4] appears, read: Acinetobacter baumannii, ATCC17978, A. baumannii ATCC17978.

As to `CNc1cc(F)cc2c1[nH]c1ncc(-c3cnc4c(c3)c(=O)c(C(=O)O)cn4C(C)CN(C)C)c(N3CCOCC3)c12` (stereo not shown) [Example 1.70], the IC50 in experiment [1] (setting [4]) is 0.619 µM; in experiment [2] (Klebsiella pneumoniae), under 0.098 µM; in experiment [3] (Staphylococcus aureus) it was under 0.098 µM. For `CNc1cc(F)c(F)c2c1[nH]c1ncc(-c3cnc4c(c3)c(=O)c(C(=O)O)cn4[C@@H]3CCNC3)c(N(C)C)c12` [Example 1.155], the results for the IC50 in experiment [1] (setting [4]), in experiment [2] (Klebsiella pneumoniae) and in experiment [3] (Staphylococcus aureus) were 0.328 µM, under 0.098 µM and 3.8 µM, respectively. In turn, `CNc1cc(F)c(F)c2c1[nH]c1ncc(-c3cnc4c(c3)c(=O)c(C(=O)O)cn4C)c(N3CCN[C@H](C(F)(F)F)C3)c12` [Example 4.01A, (S)-6-(5,6-Difluoro-8-(methylamino)-4-(3-(trifluoromethyl)piperazin-1-yl)-9H-pyrido[2,3-b]indol-3-yl)-1-methyl-4-oxo-1,4-dihydro-1,8-naphthyridine-3-carboxylic acid] registered an IC50 in experiment [1] (setting [4]) of 0.393 µM.

With `CNc1cc(F)c(F)c2c1[nH]c1ncc(-c3cnc4c(c3)c(=O)c(C(=O)O)cn4C)c(N(C)C)c12` [Example 1.01, 6-[4-(Dimethylamino)-5,6-difluoro-8-(methylamino)-9H-pyrido[2,3-b]indol-3-yl]-1-methyl-4-oxo-1,8-naphthyridine-3-carboxylic acid], the IC50 in experiment [1] (setting [4]), in experiment [2] (Klebsiella pneumoniae) and in experiment [3] (Staphylococcus aureus) was under 0.098 µM in each case. `CNc1cc(F)c(F)c2c1[nH]c1ncc(-c3cnc4c(c3)c(=O)c(C(=O)O)cn4NC)c(N3CCC4(CCCN4C)C3)c12` (stereo not shown) [Example 1.240]: the IC50 in experiment [1] (setting [4]) was 0.151 µM; in experiment [2] (Klebsiella pneumoniae), under 0.098 µM; in experiment [3] (Staphylococcus aureus), under 0.098 µM. Regarding `CNc1cc(F)c(F)c2c1[nH]c1ncc(-c3cnc4c(c3)c(=O)c(C(=O)O)cn4C3CCNC3)c(N3CCCC3)c12` (stereo not shown) [Example 1.89], the IC50 in experiment [1] (A. baumannii ATCC17978) was 0.315 µM; in experiment [2], under 0.098 µM; in experiment [3], under 0.098 µM. Turning to `CNc1cc(F)c(F)c2c1[nH]c1ncc(-c3cnc4c(c3)c(=O)c(C(=O)O)cn4C)c(N3CCC4(C[C@H]4N(C)C)C3)c12` (stereo partly drawn) [Example 6.02, 6-(4-cis-(2-(dimethylamino)-5-azaspiro[2.4]heptan-5-yl)-5,6-difluoro-8-(methylamino)-9H-pyrido[2,3-b]indol-3-yl)-1-methyl-4-oxo-1,4-dihydro-1,8-naphthyridine-3-carboxylic acid], the IC50 was 0.389 µM in experiment [1] (setting [4]), 0.166 µM in experiment [2] (Klebsiella pneumoniae) and under 0.098 µM in experiment [3] (Staphylococcus aureus).

`CNc1cc(F)cc2c1[nH]c1ncc(-c3cnc4c(c3)c(=O)c(C(=O)O)cn4C)c(N3C[C@H]4OCCN(C)[C@H]4C3)c12` [Example 3.22A]: the IC50 in experiment [1] (setting [4]) is 0.363 µM; in experiment [2] (Klebsiella pneumoniae), under 0.098 µM; in experiment [3] (Staphylococcus aureus), under 0.098 µM. `CNc1cc(F)c(F)c2c1[nH]c1ncc(-c3cnc4c(c3)c(=O)c(C(=O)O)cn4CC3CCCO3)c(N3CCOCC3)c12` (stereo not shown) [Example 1.39]: the half-inhibitory concentration (IC50) in experiment [1] (setting [4]) was 0.363 µM; in experiment [2] (Klebsiella pneumoniae), 0.19 µM; in experiment [3] (Staphylococcus aureus) it was under 0.098 µM. On to `CNc1cc(F)cc2c1[nH]c1ncc(-c3cnc4c(c3)c(=O)c(C(=O)O)cn4C)c(N3CCC(C)(CN(C)C)C3)c12` (stereo not shown) [Example 1.102], for which the half-maximal inhibitory concentration (IC50) in experiment [1] (setting [4]) is 0.134 µM; in experiment [2] (Klebsiella pneumoniae), under 0.098 µM; in experiment [3] (Staphylococcus aureus), under 0.098 µM. Take `CNc1cc(Cl)cc2c1[nH]c1ncc(-c3cnc4c(c3)c(=O)c(C(=O)O)cn4C)c(N3C[C@@H]4CCN(C)[C@@H]4C3)c12` [Example 3.15B]: the IC50 in experiment [1] (setting [4]) was 0.094 µM; in experiment [2] (Klebsiella pneumoniae), under 0.098 µM; in experiment [3] (Staphylococcus aureus), under 0.098 µM. As for `CNc1cc(F)c(F)c2c1[nH]c1ncc(-c3cnc4c(c3)c(=O)c(C(=O)O)cn4C(C)CCO)c(N(C)C)c12` (stereo not shown) [Example 1.145], the IC50 in experiment [1] (setting [4]) is 0.341 µM; in experiment [2] (Klebsiella pneumoniae), 0.202 µM; in experiment [3] (Staphylococcus aureus), under 0.098 µM. With `CCn1cc(C(=O)O)c(=O)c2cc(-c3cnc4[nH]c5c(NC)c(F)c(F)cc5c4c3N(C)C)cnc21` [Example 1.20], the results for the IC50 in experiment [1] (setting [4]), in experiment [2] (Klebsiella pneumoniae) and in experiment [3] (Staphylococcus aureus) were 0.209 µM, 0.141 µM and under 0.098 µM, respectively. As for `CNc1cc(F)c(F)c2c1[nH]c1ncc(-c3cnc4c(c3)c(=O)c(C(=O)O)cn4C)c(N3C[C@H](F)[C@@H](N(C)C)C3)c12` [Example 1.159], in experiment [1] (setting [4]), the IC50 amounted to 0.189 µM. Same read-out and setting: next, `CNc1cc(Cl)cc2c1[nH]c1ncc(-c3cnc4c(c3)c(=O)c(C(=O)O)cn4C)c(N3CC4[C@H](CC[C@H]4N(C)C)C3)c12` (stereo partly shown) [Example 1.285]: 0.253 µM. Same read-out and setting: the value for `CNc1cc(F)c(F)c2c1[nH]c1ncc(-c3cnc4c(c3)c(=O)c(C(=O)O)cn4C)c(N3CC4[C@H](CC[C@@H]4N(C)C)C3)c12` (stereo partly shown) [Example 1.288] was 0.269 µM; that for `CNc1cc(Cl)cc2c1[nH]c1ncc(-c3cnc4c(c3)c(=O)c(C(=O)O)cn4C)c(N3CC[C@H]4CN(C)C[C@H]43)c12` [Example 3.11A] was 0.122 µM. Same read-out and setting: next, `CNc1cc(F)c(F)c2c1[nH]c1ncc(-c3cnc4c(c3)c(=O)c(C(=O)O)cn4C)c(N3CCC(N(C)C4CC4)C3)c12` (stereo not shown) [Example 1.116]: 0.355 µM; `CNc1cc(F)cc2c1[nH]c1ncc(-c3cnc4c(c3)c(=O)c(C(=O)O)cn4C)c(N3CCC(N(C)C4CC4)C3)c12` (stereo not shown) [Example 1.118]: 0.521 µM; `CNc1cc(F)c(Cl)c2c1[nH]c1ncc(-c3cnc4c(c3)c(=O)c(C(=O)O)cn4C)c(N(C)C)c12` [Example 1.117]: 0.164 µM. `CNc1cc(F)c(F)c2c1[nH]c1ncc(-c3cnc4c(c3)c(=O)c(C(=O)O)cn4C)c(N3CCN[C@@H](C(F)(F)F)C3)c12` [Example 4.01B, (R)-6-(5,6-Difluoro-8-(methylamino)-4-(3-(trifluoromethyl)piperazin-1-yl)-9H-pyrido[2,3-b]indol-3-yl)-1-methyl-4-oxo-1,4-dihydro-1,8-naphthyridine-3-carboxylic acid] yielded an IC50 in experiment [1] (setting [4]) of 0.352 µM. `CNc1cc(F)c(F)c2c1[nH]c1ncc(-c3cnc4c(c3)c(=O)c(C(=O)O)cn4C)c(N3CC4C(O)CO[C@@H]4C3)c12` (stereo partly shown) [Example 1.287] displayed an IC50 in experiment [1] (setting [4]) of 0.502 µM. The IC50 values of the last two compounds are within 1.5-fold of each other.

As to `CNc1cc(F)c(F)c2c1[nH]c1ncc(-c3cnc4c(c3)c(=O)c(C(=O)O)cn4C)c(N3CCOC(COC)C3)c12` (stereo not shown) [Example 1.10], the concentration for half-maximal inhibition (IC50) in experiment [1] (setting [4]) is 0.192 µM. Still for that read-out and setting: the value for `CNc1cc(Cl)cc2c1[nH]c1ncc(-c3cnc4c(c3)c(=O)c(C(=O)O)cn4C)c(N3C[C@H]4CC[C@H](N(C)C)[C@H]4C3)c12` [Example 3.20A] was 0.149 µM; that for `CNc1cc(F)c(F)c2c1[nH]c1ncc(-c3cnc4c(c3)c(=O)c(C(=O)O)cn4NC)c(N3CC[C@@H](N(C)C)C3)c12` [Example 1.257] was 0.201 µM. In the case of `CNc1cc(F)c(F)c2c1[nH]c1ncc(-c3cnc4c(c3)c(=O)c(C(=O)O)cn4C)c(N3CCC(O)(C(F)(F)F)C3)c12` (stereo not shown) [Example 1.129], the IC50 in experiment [1] (setting [4]) is 0.302 µM; in experiment [3] (Staphylococcus aureus), under 0.098 µM. Consider `CNc1cc(Cl)cc2c1[nH]c1ncc(-c3cnc4c(c3)c(=O)c(C(=O)O)cn4C)c(N3C[C@@H]4CC[C@H](N(C)C)[C@@H]4C3)c12` [Example 3.20B], for which the IC50 in experiment [1] (setting [4]) is 0.252 µM.

Consider `CNc1cc(F)c(F)c2c1[nH]c1ncc(-c3cnc4c(c3)c(=O)c(C(=O)O)cn4Cc3ccncc3)c(N(C)C)c12` [Example 1.30], for which the IC50 was 0.242 µM in experiment [1] (setting [4]) and under 0.098 µM in experiment [3] (Staphylococcus aureus). With `CNc1cc(Cl)cc2c1[nH]c1ncc(-c3cnc4c(c3)c(=O)c(C(=O)O)cn4NC)c(N3CC[C@H]4CN(C)C[C@H]43)c12` [Example 3.12A], it took 0.081 µM to reach half-maximal inhibition in experiment [1] (setting [4]) (IC50). This lies in the double-digit nanomolar range.
